Laboratory results as given in patent US20110008466A1, “METHODS AND COMPOSITIONS FOR ALTERING CELL FUNCTION” (ALLTECH, INC., priority 2006, published 2011).

Experiments:
[1] = test system: glycogen synthase kinase-3-beta (GSK-3β); experiment: Microarray gene expression, tau kinases, brain; type: in vivo, mice; details: vs non-selenium supplemented diet, minus = down, * significant
Text: (§1) Animal Care. Male C57BL/6J mice were housed singly and started on the experimental diets described below immediately after weaning (21 days of age). The mice were maintained in the Shared Aging Rodent Facility at the William S. Middleton Memorial Veterans Administration Medical Center (Madison, Wis.). Temperature and humidity were maintained at constant levels. Room light was controlled to provide 12-hr cycles of light and dark.
(§2) Experimental diets were created by Harlan Teklad (Madison, Wis.). Selenium content of the diets was determined by Covance Inc. (Madison, Wis.). Five (5) animals were included in each of the following treatment groups: a diet deficient in selenium (SD); a diet supplemented with selenomethionine (SM, obtained from Sigma, St. Louis, Mo.) such that the final selenium content of the diet was one (1) part per million; a diet supplemented with sodium selenite (SS, Sigma) such that the final concentration of selenium in this diet was one (1) part per million; or a diet supplemented with the yeast selenium SEL-PLEX (SP, Alltech, Lexington, Ky.), such that the final concentration of selenium in this diet was one (1) part per million. SEL-PLEX. Mice were provided with water and their respective diet ad libitum for 100 days. Diets were stored at the dark at 4° C. and fresh diet was added to feeder twice weekly.
(§3) Tissue sample preparation and microarray analysis. Mice were killed at 100 days of age by cervical dislocation. For intestinal expression studies, the intestine was flushed twice with saline solution and small intestine was measured and divided in three equal segments. A 3-cm region of the middle segment of the small intestine corresponding to the jejunum (˜300 mg of tissue) was cut and rinsed again with physiological saline to completely remove contents, flash frozen in liquid nitrogen and stored at −80° C. For brain (e.g., cerebral cortex) studies, the cerebral cortex was separated from the surrounding brain tissue and was flash frozen in liquid nitrogen and stored at −80° C.
(§4) Total RNA was isolated from using the guanidinium isothiocyanate method of TRIZOL (Life Technologies, Grand Island, N.Y.) and individual samples were used for gene expression profiles. Total RNA was cleaned up by RNeasy Mini kit (Qiagen, Valencia, Calif.). Target RNA was prepared by converting […] total RNA into double-strand cDNA using GeneChip Expression 3′-Amplification Reagents One-Cycle cDNA Synthesis Kit (Affymetrix, Santa Clara, Calif.) with a T7-(dT)24 primer incorporating a T7 RNA polymerase promoter. […]

[2] = test system: cyclin-dependent kinase 5 (Cdk-5); experiment: Microarray gene expression, tau kinases, brain; type: in vivo, mice; details: vs non-selenium supplemented diet, minus = down, * significant
Text: as §1, §2, §3, §4

selenoprotein N1 (Sepn1) = experiment: Microarray gene expression, mouse intestine; type: in vivo, mice; details: 1 ppm Se diet 100 days vs Se-deficient diet, p<0.02
Text: as §1, §2, §3
(§5) Total RNA was isolated from using the guanidinium isothiocyanate method of TRIZOL (Life Technologies, Grand Island, N.Y.) and individual samples were used for gene expression profiles. Total RNA was cleaned up by RNeasy Mini kit (Qiagen, Valencia, Calif.). Target RNA was prepared by converting […] total RNA into double-strand cDNA using GeneChip Expression 3′-Amplification Reagents One-Cycle cDNA Synthesis Kit (Affymetrix, Santa Clara, Calif.) with a T7-(dT)24 primer incorporating a T7 RNA polymerase promoter. After cleaning up double-strand cDNA using Genechip Sample Cleanup Module (Affymetrix, Santa Clara, Calif.), biotin-labeled cRNA was synthesized from double-strand cDNA using GeneChip Expression 3′-Amplification Reagents for IVT Labeling (Affymetrix, Santa Clara, Calif.). The biotin-labeled cRNA was cleaned up using Genechip Sample Cleanup Module and was fragmented by heating (35 min at 94° C.).
(§6) Fifteen (15) μg of cRNA fragments were hybridized (16 h at 45° C.) to Mouse Genome 430 2.0 Array (Affymetrix, Santa Clara, Calif.) using GeneChip Hybridization Oven 640. After hybridization, the gene chips were automatically washed and stained with streptavidin-phycoerythrin biotinylated anti-streptavidin using Affymetrix GeneChip Fluidics Station 450. The DNA chips were scanned with Affymetrix GeneChip Scanner 3000 (Affymetrix, Santa Clara, Calif.) to detect the cell signal intensities by laser. All calculations were performed with Affymetrix GeneChip Operating Software (GCOS) version 1.3 after scanning
(§7) • 1. The spreadsheet containing probe set identifiers and signal intensity values was opened in Microsoft Excel (version 11.1.1 for the Macintosh OS-X operating system) and summary statistics were generated (mean signal intensity for each treatment group, standard error of the mean). Two-tailed t-tests (equal variance) were performed for the following treatment groups: SM vs. SD, SS vs. SD, and SP vs. SD. […]

[3] = test system: type II iodothyronine deiodinase (Dio2); experiment: Microarray gene expression, mouse intestine; type: in vivo, mice; details: 1 ppm Se diet 100 days vs Se-deficient diet
Text: as §1, §2, §3, §5, §6, §7

[4] = test system: Type 1 iodothyronine deiodinase; experiment: Microarray gene expression, mouse intestine; type: in vivo, mice; details: 1 ppm Se diet 100 days vs Se-deficient diet
Text: as §1, §2, §3, §5, §6, §7

[5] = test system: Growth arrest and DNA-damage-inducible 45 gamma (Gadd45g); experiment: Microarray gene expression, mouse intestine; type: in vivo, mice; details: vs Se-deficient diet, minus = down
Text: as §1, §2, §3, §5, §6, §7

[6] = test system: Growth arrest and DNA-damage-inducible 45 beta (Gadd45b); experiment: Microarray gene expression, mouse intestine; type: in vivo, mice; details: intestinal tissue; vs Se-deficient; minus = down
Text: as §1, §2, §3, §5, §6, §7

Glyoxalase 1 (Glo1) = experiment: Microarray gene expression, mouse intestine; type: in vivo, mice; details: 1 ppm Se diet 100 days vs Se-deficient diet, p<0.01
Text: as §1, §2, §3, §5, §6, §7

[7] = test system: LIM homeobox protein 8 gene (Lhx8); experiment: Microarray gene expression, mouse intestine; type: in vivo, mice; details: vs Se-deficient subjects, p<0.01
Text: as §1, §2, §3, §5, §6, §7

Prohibitin (Phb) = experiment: Microarray gene expression, mouse intestine; type: in vivo, mice; details: vs Se-deficient diet, p<0.05
Text: as §1, §2, §3, §5, §6, §7

Neurogenin 3 (Neurog3) = experiment: Microarray gene expression, mouse intestine; type: in vivo, mice; details: vs Se-deficient diet
Text: as §1, §2, §3, §5, §6, §7

SelR (Selenoprotein X1) = experiment: Microarray gene expression, mouse intestine; type: in vivo, mice; details: 1 ppm Se diet 100 days vs Se-deficient diet
Text: as §1, §2, §3, §5, §6, §7

Selenoprotein W (SelW) = experiment: Microarray gene expression, mouse intestine; type: in vivo, mice; details: 1 ppm Se diet 100 days vs Se-deficient diet
Text: as §1, §2, §3, §5, §6, §7

[8] = test system: transforming growth factor beta 2 (TGF-β2); experiment: Microarray gene expression, mouse intestine; type: in vivo, mice; details: vs controls
Text: as §1, §2, §3, §5, §6, §7

[9] = test system: sprouty homolog 2 gene (Spry2); experiment: Microarray gene expression, mouse intestine; type: in vivo, mice; details: relative to Se-deficient controls
Text: as §1, §2, §3, §5, §6, §7

Gadd45g1p = experiment: Microarray gene expression, mouse intestine; type: in vivo, mice; details: p<0.05
Text: as §1, §2, §3, §5, §6, §7

[10] = test system: complement component genes; experiment: Microarray gene expression, mouse cerebral cortex (summary of Table 6); type: in vivo, mice; details: p<0.01
Text: as §1
as §2, with “Mice were provided with water and their respective diet ad libitum for 100 days. Diets were stored at the dark at 4° C. and fresh diet was added to feeder twice weekly.” left out
(§8) Tissue sample preparation and microarray analysis. […] For intestinal expression studies, the intestine was flushed twice with saline solution and small intestine was measured and divided in three equal segments. […]

CORS-26 = experiment: Microarray gene expression, mouse cerebral cortex; type: in vivo, mice; details: Example 10 (brain); vs Se-deficient diet
Text: as §1, §2, §3, §5, §6, §7

Gadd45b [11] = experiment: Microarray gene expression, mouse cerebral cortex; type: in vivo, mice; details: minus = down; for Fold change Gadd45b gene expression, ctx (Table 14): cortex tissue, vs Se-deficient
Text: as §1, §2, §3, §5, §6, §7

Gadd45b [12] = experiment: Gene expression, skeletal muscle tissue; type: in vivo, mice; details: vs Se-deficient, minus = down
Text: as §1
as §2, with “Diets were stored at the dark at 4° C. and fresh diet was added to feeder twice weekly.” left out
(§9) • 1. […] Additionally, a “signal intensity score” was calculated for each probe set as the sum of the signal intensities for all chips (N=20). • 2. […]

GST genes = experiment: Microarray gene expression, mouse intestine (summary of Table 3); type: in vivo, mice; details: vs Se-deficient diet
Text: as §1
as §2, with “Mice were provided with water and their respective diet ad libitum for 100 days. Diets were stored at the dark at 4° C. and fresh diet was added to feeder twice weekly.” left out
as §8

Gadd45b [13] = experiment: Gene expression, liver tissue; type: in vivo, mice; details: vs Se-deficient, minus = down
Text: as §1
as §2, with “Diets were stored at the dark at 4° C. and fresh diet was added to feeder twice weekly.” left out
as §9

SOD1 = experiment: Microarray gene expression, mouse intestine; type: in vivo, mice; details: 1 ppm Se diet 100 days vs Se-deficient diet
Text: as §1, §2, §3, §5, §6, §7

Thioredoxin Reductase 1 = experiment: Microarray gene expression, mouse intestine; type: in vivo, mice; details: 1 ppm Se diet 100 days vs Se-deficient diet, all p <0.01
Text: as §1, §2, §3, §5, §6, §7

[14] = test system: Cu chaperone for SOD (CCS); experiment: Microarray gene expression, mouse intestine; type: in vivo, mice; details: 1 ppm Se diet 100 days vs Se-deficient diet
Text: as §1, §2, §3, §5, §6, §7

[15] = test system: Complement component 1, q subcomponent, beta polypeptide, C1qbp; experiment: Microarray gene expression, mouse cerebral cortex; type: in vivo, mice; details: vs Se-deficient diet, minus = down, * = significant p<0.01
Text: as §1, §2, §3, §5, §6, §7

[16] = test system: Gadd45g1p (Growth arrest and DNA-damage inducible 45 gamma interacting protein); experiment: Microarray gene expression, mouse cerebral cortex; type: in vivo, mice; details: brain; minus = down; * significant relative to Se-deficient animals
Text: as §1, §2, §3, §5, §6, §7

[17] = test system: Complement component 1, q subcomponent binding protein, C1qbp; experiment: Microarray gene expression, mouse cerebral cortex; type: in vivo, mice; details: vs Se-deficient diet, minus = down, * = significant p<0.01
Text: as §1, §2, §3, §5, §6, §7

calpain-5 = experiment: Expression level of calpain genes after selenium administration; type: in vivo; details: tissue not stated; minus = down; asterisk not explained
Procedure: Compositions and methods of the present invention were analyzed to determine if they were capable of altering the expression levels of calpain genes. Compositions comprising various forms of selenium (e.g., SeM, Sod-sel, and SEL-PLEX) were administered to subjects and the expression levels of calpain genes monitored. The expression level of calpain-5 was altered by treatment in the following ways: free selenomethionine (SM)+1.32*, Sod-sel −1.07, SEL-PLEX −1.44*.

Compound: C[Se]CC[C@H](N)C(=O)O [SeM, selenomethionine]
- FC GsKβ3 (GSK-3β) gene expression ([1]; listed as SM): −1.10 fold
- FC CdK5 gene expression ([2]; listed as SM): −1.00 fold
- fold increase of selenoprotein N1 (Sepn1) gene expression (selenoprotein N1 (Sepn1)): not significantly affected
- fold down-regulation of Dio2 expression [3]: no ability to alter
- fold increase in expression of Type 1 iodothyronine deiodinase [4]: 2.0 fold
- FC Gadd45g expression (Table 2) [5]: −1.5 (p < 0.05) fold
- Fold change Gadd45b gene expression, int (Table 14) [6]: −1.07 fold
- fold reduction of Glo1 expression (Glyoxalase 1 (Glo1)): not significantly affected
- fold upregulation of Lhx8 expression [7]: not significantly different
- fold upregulation of Prohibitin (Phb) expression (Prohibitin (Phb)): 1.6 fold
- fold upregulation of Neurog3 expression (Neurogenin 3 (Neurog3)): no significant alteration
- fold upregulation of SelR gene (SelR (Selenoprotein X1)): not significantly affected
- fold upregulation of Selenoprotein W (SelW) expression (Selenoprotein W (SelW)): not significantly altered
- fold upregulation of TGF-β2 expression [8]: not altered
- fold reduction in Spry2 gene expression [9]: no alteration
- expression of Gadd45g1p in intestinal tissue (Gadd45g1p): decreased expression
- down-regulation of complement component genes (summary in words) [10]: did not provide a statistically significant alteration
- fold reduction in expression of CORS-26 (CORS-26): no alteration
- Fold change Gadd45b gene expression, ctx (Table 14) (Gadd45b [11]; listed as Selenomethionine): −1.26 fold
- Fold change Gadd45b gene expression, ctx (Table 14) (Gadd45b [11]; listed as selenomethionine): significant reduction
- Fold change Gadd45b gene expression, skm (Table 14) (Gadd45b [12]): 1.02 fold
- alteration of expression pattern of GST genes (summary in words) (GST genes): no alteration
- Fold change Gadd45b gene expression, liv (Table 14) (Gadd45b [13]): 1.24 fold

Compound: O=[Se](O)O [Sod-sel, sodium selenite]
- FC GsKβ3 (GSK-3β) gene expression ([1]; listed as SS): −1.63* fold
- FC CdK5 gene expression ([2]; listed as SS): −1.13 fold
- fold enhanced expression of SOD1 (SOD1): 1.92 fold
- fold increase in expression of the Thioredoxin Reductase 1 gene (Thioredoxin Reductase 1): 1.7 fold
- fold increase in expression of Type 1 iodothyronine deiodinase [4]: 2.8 fold
- FC Gadd45g expression (Table 2) [5]: −2.0 (p < 0.01) fold
- Fold change Gadd45b gene expression, int (Table 14) [6]: 1.08 fold
- fold enhancement in expression of Cu chaperone for SOD (CCS) [14]: 1.28 fold
- fold upregulation of SelR gene (SelR (Selenoprotein X1)): 1.3 fold
- fold upregulation of Selenoprotein W (SelW) expression (Selenoprotein W (SelW)): 5.1 fold
- FC C1q beta polypeptide (printed C1qbp) expression [15]: −1.35 fold
- FC Gadd45g1p expression (Table 11) [16]: −1.12 fold
- FC Gadd45b expression (Table 11) (Gadd45b [11]; brain, * significant relative to Se-deficient animals): −1.39* fold
- Fold change Gadd45b gene expression, ctx (Table 14) (Gadd45b [11]): −1.33 fold
- FC C1qbp (C1q binding protein) expression [17]: 1.11 fold
- Fold change Gadd45b gene expression, skm (Table 14) (Gadd45b [12]): −2.42 fold
- expression level of calpain-5 altered by treatment (calpain-5): −1.07
- Fold change Gadd45b gene expression, liv (Table 14) (Gadd45b [13]): 1.25 fold
